Reference: patent US10227331B2 (priority 2015, dated 2019)

Legend:
IMP-1 = IMP-1 (Serratia marcescens, UniProt P52699); assay: biochemical; type: biochemical; settings: CCF2-FA substrate, 2 hours at 25° C; read-out: IMP-1 IC50
Method in brief: (§1)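 Two-hour, 25° C incubation of enzyme with inhibitor and CCF2-FA (7-hydroxycoumarin–cephalosporin–fluorescein). Fluorescence read-out; IC50 via 4-parameter fit.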

NDM-1 = NDM-1 (Klebsiella pneumoniae, UniProt C7C422); assay: biochemical; type: biochemical; settings: CCF2-FA substrate, 2 hours at 25° C; read-out: NDM-1 IC50
Sequence of NDM-1 (C7C422 whole entry, looked up, species assumed): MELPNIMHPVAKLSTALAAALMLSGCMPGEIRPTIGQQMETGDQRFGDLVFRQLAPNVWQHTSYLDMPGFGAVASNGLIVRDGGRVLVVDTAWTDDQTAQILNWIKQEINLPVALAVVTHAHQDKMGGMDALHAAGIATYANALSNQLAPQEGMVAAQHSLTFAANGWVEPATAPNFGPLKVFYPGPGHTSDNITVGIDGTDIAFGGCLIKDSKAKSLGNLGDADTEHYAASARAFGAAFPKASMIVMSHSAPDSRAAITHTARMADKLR
Method in brief: as §1

VIM-1 = VIM-1 (Pseudomonas aeruginosa (strain ATCC 15692 / DSM 22644 / CIP 104116 / JCM 14847 / LMG 12228 / 1C / PRS 101 / PAO1), UniProt A0A0F7KYQ8); assay: biochemical; settings: CCF2-FA substrate, 2 hours at 25° C
Method in brief: as §1

[1] = test system: Escherichia coli expressing NDM-1 (CLB30005, CLB30016); type: cell-based; settings: with imipenem 1 μg/ml, 95% inhibition of bacterial growth; for Escherichia coli MITC95: NDM-1 (CLB30016)
Method in brief: (§2)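 Colonies from overnight 35 °C blood-agar cultures were suspended in saline, diluted 1:100 into 1.1× CAMHB and exposed to test compound with or without imipenem at 1 μg/ml. After 22–24 h at 35 °C, absorbance was read to find the concentration restoring imipenem susceptibility.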

[2] = test system: Klebsiella pneumoniae expressing VIM-1 (IHMA599644); type: cell-based; settings: with imipenem 1 μg/ml, 95% inhibition of bacterial growth; for Klebsiella pneumoniae MITC95: VIM-1 (IHMA599644)
Method in brief: as §2

[3] = test system: Serratia marcescens expressing IMP-1 (CL5741); type: cell-based; settings: with imipenem 1 μg/ml, 95% inhibition of bacterial growth; for Serratia marcescens MITC95: IMP-1 (CL5741)
Method in brief: as §2

[4] = test system: P. aeruginosa expressing IMP-1, efflux+ (MB9798); type: cell-based, Pseudomonas aeruginosa; settings: for P. aeruginosa expressing IMP-1, efflux+ (MB9798) MITC95: imipenem at 2 μg/mL, in the presence of a class A, C, D serine β-lactamase inhibitor closely related to relebactam; for Efflux ratio: ratio MITC95 PA_9798/MITC95 PA_9799
Description: (§3) The strain background is Pseudomonas aeruginosa PAO1.

[5] = test system: P. aeruginosa expressing IMP-1, efflux− (MB9799); assay: Efflux: concentration of MBL inhibitor which restores susceptibility to imipenem; type: cell-based, Pseudomonas aeruginosa; settings: imipenem at 2 μg/mL, in the presence of a class A, C, D serine β-lactamase inhibitor closely related to relebactam
Description: as §3

Sequence of IMP-1 (P52699 whole entry, looked up, species assumed): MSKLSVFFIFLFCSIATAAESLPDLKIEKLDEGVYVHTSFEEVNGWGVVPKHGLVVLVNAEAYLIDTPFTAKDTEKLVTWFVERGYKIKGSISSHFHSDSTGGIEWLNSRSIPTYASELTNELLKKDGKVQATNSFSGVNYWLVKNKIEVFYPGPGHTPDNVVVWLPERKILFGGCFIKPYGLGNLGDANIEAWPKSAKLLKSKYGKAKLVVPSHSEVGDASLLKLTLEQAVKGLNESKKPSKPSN

NS(=O)(=O)c1c(SC2CNC2)ccc(-c2ccc(C3CCNCC3)cc2)c1-c1nn[nH]n1 [Example 4, 4-(Azetidin-3-ylthio)-4′-(piperidin-4-yl)-2-(2H-tetrazol-5-yl)-[1,1′-biphenyl]-3-sulfonamide]
IC50 (IMP-1): 15100 pM
IC50 (NDM-1): 11500 pM
IC50 (VIM-1): 53500 pM
Escherichia coli expressing NDM-1 (CLB30016) MITC95 [1]: 0.7813 µM
Klebsiella pneumoniae expressing VIM-1 (IHMA599644) MITC95 [2]: 3.125 µM
Serratia marcescens expressing IMP-1 (CL5741) MITC95 [3]: 1.563 µM
P. aeruginosa expressing IMP-1, efflux+ (MB9798) MITC95 [4]: 1.563 µM
Efflux ratio [4]: 4.00
P. aeruginosa expressing IMP-1, efflux− (MB9799) MITC95 [5]: 0.3906 µM

NCCNC(=O)c1cc(-c2ccc(S(=O)(=O)CCN)c(S(N)(=O)=O)c2-c2nn[nH]n2)cnc1N [compound 337, 2-amino-N-(2-aminoethyl)-5-(4-((2-aminoethyl)sulfonyl)-3-sulfamoyl-2-(2H-tetrazol-5-yl)phenyl)nicotinamide]
IC50 (IMP-1): 12300 pM
IC50 (NDM-1): 5650 pM
IC50 (VIM-1): 4380 pM
Escherichia coli MITC95 [1]: 0.7813 µM
Klebsiella pneumoniae MITC95 [2]: 1.563 µM
Serratia marcescens MITC95 [3]: 1.563 µM
P. aeruginosa expressing IMP-1, efflux+ (MB9798) MITC95 [4]: 6.25 µM
Efflux ratio [4]: 8.00
P. aeruginosa expressing IMP-1, efflux− (MB9799) MITC95 [5]: 0.7813 µM

COc1cc(-c2ccc(S(=O)(=O)CCN)c(S(N)(=O)=O)c2-c2nnn[nH]2)cnc1N.O=C(O)C(F)(F)F [Example 169, 2-((4-(6-amino-5-methoxypyridin-3-yl)-2-sulfamoyl-3-(1H-tetrazol-5-yl)phenyl)sulfonyl)ethanaminium 2,2,2-trifluoroacetate]
IC50 (IMP-1): 5270 pM
IC50 (NDM-1): 6000 pM
IC50 (VIM-1): 1030 pM
Escherichia coli expressing NDM-1 (CLB30016) MITC95 [1]: 0.7813 µM
Klebsiella pneumoniae expressing VIM-1 (IHMA599644) MITC95 [2]: 6.25 µM
Serratia marcescens expressing IMP-1 (CL5741) MITC95 [3]: 3.125 µM
P. aeruginosa expressing IMP-1, efflux+ (MB9798) MITC95 [4]: 25 µM
Efflux ratio [4]: 15.99
P. aeruginosa expressing IMP-1, efflux− (MB9799) MITC95 [5]: 1.563 µM

NS(=O)(=O)c1c([S+]([O-])C2CNC2)ccc(-c2cnc3ccccn23)c1-c1nn[nH]n1 (stereo not drawn) [Example 8, 6-(azetidin-3-ylsulfinyl)-3-(imidazo[1,2-a]pyridin-3-yl)-2-(2H-tetrazol-5-yl)benzenesulfonamide]
IC50 (IMP-1): 37700 pM
IC50 (NDM-1): 2620 pM
IC50 (VIM-1): 6920 pM
Escherichia coli expressing NDM-1 (CLB30016) MITC95 [1]: 3.125 µM
Klebsiella pneumoniae expressing VIM-1 (IHMA599644) MITC95 [2]: 12.5 µM
Serratia marcescens expressing IMP-1 (CL5741) MITC95 [3]: 12.5 µM
P. aeruginosa expressing IMP-1, efflux+ (MB9798) MITC95 [4]: 50 µM
Efflux ratio [4]: 8.00
P. aeruginosa expressing IMP-1, efflux− (MB9799) MITC95 [5]: 6.25 µM

Cc1n[nH]c2ccc(-c3ccc(S(=O)(=O)C4CNC4)c(S(N)(=O)=O)c3-c3nnn[nH]3)cc12.O=C(O)C(F)(F)F [Example 126, 3-((4-(3-methyl-1H-indazol-5-yl)-2-sulfamoyl-3-(1H-tetrazol-5-yl)phenyl)sulfonyl)azetidin-1-ium 2,2,2-trifluoroacetate]
IC50 (IMP-1): 715 pM
IC50 (NDM-1): 428 pM
IC50 (VIM-1): 477 pM
Escherichia coli expressing NDM-1 (CLB30016) MITC95 [1]: 3.125 µM
Klebsiella pneumoniae expressing VIM-1 (IHMA599644) MITC95 [2]: 6.25 µM
Serratia marcescens expressing IMP-1 (CL5741) MITC95 [3]: 6.25 µM
P. aeruginosa expressing IMP-1, efflux+ (MB9798) MITC95 [4]: 12.5 µM
Efflux ratio [4]: 8.00
P. aeruginosa expressing IMP-1, efflux− (MB9799) MITC95 [5]: 1.563 µM

CC(=O)N1CC(S(=O)(=O)c2ccc(-c3cccc4nc(N)[nH]c34)c(-c3nn[nH]n3)c2S(N)(=O)=O)C1 [Example 54, 6-(1-acetylazetidin-3-ylsulfonyl)-3-(2-amino-3H-benzo[d]imidazol-4-yl)-2-(2H-tetrazol-5-yl)benzenesulfonamide]
IC50 (IMP-1): 2380 pM
IC50 (NDM-1): 178 pM
IC50 (VIM-1): 435 pM
Escherichia coli expressing NDM-1 (CLB30016) MITC95 [1]: 6.25 µM
Klebsiella pneumoniae expressing VIM-1 (IHMA599644) MITC95 [2]: 12.5 µM
Serratia marcescens expressing IMP-1 (CL5741) MITC95 [3]: 6.25 µM
P. aeruginosa expressing IMP-1, efflux+ (MB9798) MITC95 [4]: 50 µM
Efflux ratio [4]: 16.00
P. aeruginosa expressing IMP-1, efflux− (MB9799) MITC95 [5]: 3.125 µM

Nc1ccc2cccc(-c3ccc(S(=O)(=O)C4CNC4)c(S(N)(=O)=O)c3-c3nn[nH]n3)c2n1 [Example 36, 3-(2-aminoquinolin-8-yl)-6-(azetidin-3-ylsulfonyl)-2-(2H-tetrazol-5-yl)benzenesulfonamide]
IC50 (IMP-1): 357 pM
IC50 (NDM-1): 104 pM
IC50 (VIM-1): 282 pM
Escherichia coli expressing NDM-1 (CLB30016) MITC95 [1]: 3.125 µM
Klebsiella pneumoniae expressing VIM-1 (IHMA599644) MITC95 [2]: 1.563 µM
Serratia marcescens expressing IMP-1 (CL5741) MITC95 [3]: 0.7813 µM
P. aeruginosa expressing IMP-1, efflux+ (MB9798) MITC95 [4]: 0.7813 µM
Efflux ratio [4]: 1.00
P. aeruginosa expressing IMP-1, efflux− (MB9799) MITC95 [5]: 0.7813 µM

NCCS(=O)(=O)c1ccc(-c2ccnc3[nH]ccc23)c(-c2nnn[nH]2)c1S(N)(=O)=O.O=C(O)C(F)(F)F [Example 142, 2-((4-(1H-pyrrolo[2,3-b]pyridin-4-yl)-2-sulfamoyl-3-(1H-tetrazol-5-yl)phenyl)sulfonyl)ethanaminium 2,2,2-trifluoroacetate]
IC50 (IMP-1): 517 pM
IC50 (NDM-1): 518 pM
IC50 (VIM-1): 154 pM
Escherichia coli expressing NDM-1 (CLB30016) MITC95 [1]: 1.563 µM
Klebsiella pneumoniae expressing VIM-1 (IHMA599644) MITC95 [2]: 3.125 µM
Serratia marcescens expressing IMP-1 (CL5741) MITC95 [3]: 1.563 µM
P. aeruginosa expressing IMP-1, efflux+ (MB9798) MITC95 [4]: 3.125 µM
Efflux ratio [4]: 4.00
P. aeruginosa expressing IMP-1, efflux− (MB9799) MITC95 [5]: 0.7813 µM

NS(=O)(=O)c1c(S(=O)(=O)C2CNC2)ccc(-c2cccc3sc(C(=O)O)nc23)c1-c1nnn[nH]1 [Example 68, 4-(4-(azetidin-3-ylsulfonyl)-3-sulfamoyl-2-(1H-tetrazol-5-yl)phenyl)benzo[d]thiazole-2-carboxylic Acid]
IC50 (IMP-1): 356 pM
IC50 (NDM-1): 70.9 pM
IC50 (VIM-1): 256 pM
Escherichia coli expressing NDM-1 (CLB30016) MITC95 [1]: 6.25 µM
Klebsiella pneumoniae expressing VIM-1 (IHMA599644) MITC95 [2]: 12.5 µM
Serratia marcescens expressing IMP-1 (CL5741) MITC95 [3]: 6.25 µM
P. aeruginosa expressing IMP-1, efflux+ (MB9798) MITC95 [4]: 6.25 µM
Efflux ratio [4]: 2.00
P. aeruginosa expressing IMP-1, efflux− (MB9799) MITC95 [5]: 3.125 µM

Nc1nc2cccc(-c3ccc(S(=O)(=O)[C@H]4C[C@@H](N)C4)c(S(N)(=O)=O)c3-c3nn[nH]n3)c2[nH]1 [Example 176, 3-(2-amino-3H-benzo[d]imidazol-4-yl)-6-((1s, 3s)-3-aminocyclobutylsulfonyl)-2-(2H-tetrazol-5-yl)benzenesulfonamide]
IC50 (IMP-1): 1090 pM
IC50 (NDM-1): 250 pM
IC50 (VIM-1): 831 pM
Escherichia coli expressing NDM-1 (CLB30016) MITC95 [1]: 0.7813 µM
Klebsiella pneumoniae expressing VIM-1 (IHMA599644) MITC95 [2]: 1.563 µM
Serratia marcescens expressing IMP-1 (CL5741) MITC95 [3]: 0.7813 µM
P. aeruginosa expressing IMP-1, efflux+ (MB9798) MITC95 [4]: 0.7813 µM
Efflux ratio [4]: 1.00
P. aeruginosa expressing IMP-1, efflux− (MB9799) MITC95 [5]: 0.7813 µM

NS(=O)(=O)c1c(SC2CCNCC2)ccc(-c2ccc(C3CCNCC3)cc2)c1-c1nnn[nH]1 [Example 226, 4′-(piperidin-4-yl)-4-(piperidin-4-ylthio)-2-(1H-tetrazol-5-yl)-[1,1′-biphenyl]-3-sulfonamide]
IC50 (IMP-1): 35700 pM
IC50 (NDM-1): 15000 pM
IC50 (VIM-1): 48500 pM
Escherichia coli expressing NDM-1 (CLB30016) MITC95 [1]: 1.563 µM
Klebsiella pneumoniae expressing VIM-1 (IHMA599644) MITC95 [2]: 6.25 µM
Serratia marcescens expressing IMP-1 (CL5741) MITC95 [3]: 3.125 µM
P. aeruginosa expressing IMP-1, efflux+ (MB9798) MITC95 [4]: 25 µM
Efflux ratio [4]: 32.00
P. aeruginosa expressing IMP-1, efflux− (MB9799) MITC95 [5]: 0.7813 µM

NCCS(=O)(=O)c1ccc(-c2ccc(C3CCNCC3)cc2)c(-c2nn[nH]n2)c1S(N)(=O)=O [Example 322, 4-((2-aminoethyl)sulfonyl)-4′-(piperidin-4-yl)-2-(2H-tetrazol-5-yl)-[1,1′-biphenyl]-3-sulfonamide]
IC50 (IMP-1): 170 pM
IC50 (NDM-1): 731 pM
IC50 (VIM-1): 205 pM
Escherichia coli MITC95 [1]: 1.563 µM
Klebsiella pneumoniae MITC95 [2]: 3.125 µM
Serratia marcescens MITC95 [3]: 1.563 µM
P. aeruginosa expressing IMP-1, efflux+ (MB9798) MITC95 [4]: 1.563 µM
Efflux ratio [4]: 2.00
P. aeruginosa expressing IMP-1, efflux− (MB9799) MITC95 [5]: 0.7813 µM

Nc1nc2cc(-c3ccc(S(=O)(=O)C4CNC4)c(S(N)(=O)=O)c3-c3nn[nH]n3)ccc2o1 [Example 31, 3-(2-aminobenzo[d]oxazol-5-yl)-6-(azetidin-3-ylsulfonyl)-2-(2H-tetrazol-5-yl)benzenesulfonamide]
IC50 (IMP-1): 1370 pM
IC50 (NDM-1): 336 pM
IC50 (VIM-1): 373 pM
Escherichia coli expressing NDM-1 (CLB30016) MITC95 [1]: 1.563 µM
Klebsiella pneumoniae expressing VIM-1 (IHMA599644) MITC95 [2]: 3.125 µM
Serratia marcescens expressing IMP-1 (CL5741) MITC95 [3]: 1.563 µM
P. aeruginosa expressing IMP-1, efflux+ (MB9798) MITC95 [4]: 6.25 µM
Efflux ratio [4]: 4.00
P. aeruginosa expressing IMP-1, efflux− (MB9799) MITC95 [5]: 1.563 µM
